What was measured:
HIF-1α/pVHL interaction = molecular target: T1, HIF-1α/pVHL interaction (Homo sapiens, UniProt P40337); assay: Polypeptide blocking assay of HIF-1α and pVHL.HA IVTT mixture, anti-HA immunoprecipitation; type: binding
T1 construct: made in house; host or cells: TNT rabbit reticulocyte lysate (Promega), in vitro transcription/translation
Experimental: Further studies were performed using synthetic polypeptides as inhibitors of the HIF-1α/pVHL interaction (23). […] Results for a series of polypeptides derived from this domain are summarized in FIG. 1B and implicate a similar minimal interaction domain. […] This polypeptide comprises HIF-1α polypeptide residues 556 to 574 and its ability to block binding following exposure to a variety of direct oxidation conditions was assessed.
We synthesized a polypeptide (HIF-1α residues 556-574), containing a trans-4-hydroxy-S-proline residue at position 564 (19:Pro564Hyp), since the trans-4-hydroxylation is the commonest enzymatic proline oxidation (25). A polypeptide blocking assay was carried out using the 19:Pro564Hyp modified polypeptide and, as a control, the unmodified polypeptide without the trans-4-hydroxylation (19:WT). The 19:WT polypeptide was either incubated with cell extract before the binding assay or was untreated. The 19:Pro564Hyp polypeptide was added to a mixture of HIF-1α and pVHL-HA IVTTs at a concentration of 1, 0.25, 0.05 or 0.01 μM and the cell extract treated or untreated 19:WT polypeptide at a concentration of 0.5 μM. Interaction of HIF-1α with pVHL was then assayed by anti-HA immunoprecipitation. […] A pVHL capture assay was then carried out using biotinylated synthetic polypeptides. The same polypeptides, 19:Pro564Hyp and 19:WT were assessed for the ability to capture wild type or mutant (Pro86His) pVHL. […] In both cases capture was specific for wild type, as opposed to mutant, pVHL.
• 1. G. L. Semenza, Genes Dev 14, 1983-91. (2000). • 2. N. V. Iyer, et al., Genes Dev. 12, 149-162 (1997). • 3. E. Maltepe, J. V. Schmidt, D. Baunoch, C. A. Bradfield, M. C. Simon, Nature 386, 403-407 (1997). • 4. G. L. Wang, B.-H. Jiang, E. A. Rue, G. L. Semenza, Proc. Natl. Acad. Sci. USA 92, 5510-5514 (1995). • 5. S. Salceda, J. Caro, J. Biol. Chem. 272, 22642-22647 (1997). • 6. L. E. Huang, J. Gu, M. Schau, H. F. Bunn, Proc. Natl. Acad. Sci. USA 95, 7987-7992 (1998). • 7. M. S. Wiesener, et al., Blood 92, 2260-2268 (1998). • 8. P. H. Maxwell, et al., Nature 399, 271-275 (1999). • 9. K. Iwai, et al., Proc. Natl. Acad. Sci. USA 96, 12436-12441 (1999). • 10. J. Lisztwan, G. Imbert, C. Wirbelauer, M. Gstaiger, W. Krek, Genes Dev 13, 1822-33 (1999). • 11. M. E. Cockman, et al., J Biol Chem (2000). • 12. M. Ohh, et al., Nat Cell Biol 2, 423-7. (2000). • 13. T. Kamura, et al., Proc Natl Acad Sci USA 97, 10430-5. (2000). • 14. K. Tanimoto, Y. Makino, T. Pereira, L. Poellinger, Embo J 19, 4298-309. (2000). • 15. M. A. Goldberg, S. P. Dunning, H. F. Bunn, Science 242, 1412-1415 (1988). • 16. G. L. Wang, G. L. Semenza, Blood 82, 3610-3615 (1993). • 17. G. L. Semenza, Cell 98, 281-284 (1999). • 18. Hypoxia (<0.1% oxygen) was obtained in a workstation with O2, CO2 and temperature control (Ruskinn Technologies, Leeds, UK). For hypoxic harvest, buffers were preincubated in the chamber overnight. RCC4-VHL.HA, labelling conditions and co-immunoprecipitation assays have been described previously (11); in the current study 12.5 μM MG132 was used for proteasomal inhibition. For standard harvest, the cells were removed from the chamber after hypoxic exposure, prior to cell lysis. Co-immunoprecipitation assays on all lysates were performed at 4° C. under ambient oxygen conditions. […] When programming in hypoxia, reaction mix was preincubated in the workstation for 10 minutes before addition of the DNA template. […]

[1] = system: collagen prolyl-hydroxylase (CPH); conditions: cited from earlier work
HIF = assay: Induction of HIF in tissue culture by esterified equivalents; type: cell-based; conditions: In-vivo esterified equivalent
[2] = system: HIF hydroxylase (HPH activity); assay: HIF hydroxylase (HPH) inhibition, statements of the description; type: biochemical
[3] = system: HIF-α prolyl-hydroxylase (HIF-PH) of cell extract; assay: Modifying activity (HIF-PH) of cell extract on HIF substrate (Gal/HIF-1α549-582/VP16 or 19:WT), pVHL capture assay; type: biochemical, mammalian; conditions: for Disruption of HIF-VHL interaction: In-vitro inhibitor; for pVHL binding after treatment of Gal-Hif549-582-VP16 with cell extract in the presence of inhibitor: SDS-PAGE and autoradiography; for effect of pretreatment of extracts on modifying activity: clotrimazole 10 μM, methyl-viologen 1 mM, NADase 20 mU/ml
Experimental: The unlabelled HIF-1α substrate was immunopurified on beads, washed, and aliquots incubated under different test conditions in buffer or cell extract. After further washing, the beads were assayed for ability to interact with 35-S labelled pVHL IVTT (21) which was then visualised by fluorography.
The capture of labelled pVHL by different HIF substrates was monitored after exposure to various test conditions.
We went on to test a series of 2-oxoglutarate analogues which act as competitive inhibitors of this class of enzyme (29) for ability to inhibit HIF-PH as assessed by the ability of cell extracts to modify either HIF polypeptide (19:WT) or a HIF fusion protein (Gal/HIF-1α549-582/VP16) so as to promote pVHL capture. […] In one such experiment the effect of N-oxalylglycine on pVHL capture by a biotinylated HIF polypeptides as substrate was monitored. The WT:19 and 19:Pro564Hyp polypeptides described above were used as substrates. […] The effect of dimethyl-oxalyglycine on HIF-1α expression was also studied. HIF-1α immunoblot analysis of extracts of Hep3B and U2OS cells exposed to dimethyl-oxalylgylcine (0, 0.1 or 1.0 mM) for 6 hours was carried out. […]

T1 sequence (P40337 whole entry): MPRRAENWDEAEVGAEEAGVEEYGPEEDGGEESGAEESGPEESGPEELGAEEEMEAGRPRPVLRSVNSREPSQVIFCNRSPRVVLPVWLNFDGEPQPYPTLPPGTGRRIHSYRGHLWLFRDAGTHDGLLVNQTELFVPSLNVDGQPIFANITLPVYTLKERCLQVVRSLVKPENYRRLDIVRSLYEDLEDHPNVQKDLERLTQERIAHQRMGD

## 34 residue sequence encompassing amino acids 549-582: synthetic polypeptide, HIF-1α residues 549-582
HIF-1α/pVHL interaction; cell extract supplemented with Fe(II)
  blocking of HIF-1α/pVHL interaction by polypeptide after exposure to cell extract: blocking activity was strikingly induced
HIF-1α/pVHL interaction; untreated polypeptide
  blocking of HIF-1α/pVHL interaction by polypeptide not exposed to cell extract: unable to block interaction

## CC(NC(=O)C(=O)O)C(=O)O (racemic) [(RS)-N-oxaloalanine]
[1]
  inhibition of CPH: poor inhibitor

## CCOC(=O)c1ccnc(C(=O)OCC)c1 [2, 4 diethylpyridine dicarboxylate, 2,4-diethylpyridine dicarboxylate]
[1]
  inhibition of CPH: known CPH inhibitor
HIF
  Induction of HIF in tissue culture: No
[2]
  inhibition of HIF hydroxylase / HPH: found not to inhibit HPH

## O=C(O)c1ccnc(C(=O)O)c1 [2, 4 pyridine dicarboxylic acid]
[3]
  Disruption of HIF-VHL interaction: Yes

## CCOC(=O)c1ccc(C(=O)OCC)nc1 [2, 5 diethylpyridine dicarboxylate]
HIF
  Induction of HIF in tissue culture: No

## CCOC(=O)c1cccc(C(=O)OCC)n1 [2, 6 diethylpyridine dicarboxylate]
HIF
  Induction of HIF in tissue culture: No

## CC(C)[C@H](NC(=O)C(=O)O)C(=O)O [(S)-oxalovaline]
[2]
  inhibition of HIF hydroxylase / HPH: little or no activity

## COC(=O)CNC(=S)C(=O)OC [Is1]
[3]
  pVHL binding after treatment of Gal-Hif549-582-VP16 with cell extract in the presence of inhibitor: reduced pVHL binding

## O=C(O)CNC(=S)C(=O)O [Is3]
[3]
  pVHL binding after treatment of Gal-Hif549-582-VP16 with cell extract in the presence of inhibitor: reduced pVHL binding

## COCCNC(=O)c1ccncc1C(=O)NCCOC [Is8]
[3]
  pVHL binding after treatment of Gal-Hif549-582-VP16 with cell extract in the presence of inhibitor: reduced pVHL binding

## COC(=O)C(=O)NC(C)C(=O)OC [Methylmethoxalyl-D/L-alanine]
HIF
  Induction of HIF in tissue culture: No

## C[C@@H](NC(=O)C(=O)O)C(=O)O [N-oxalyl-2R-alanine]
[3]; N-oxalylglycine 0.2-1 mM, overcome by 5 mM 2-oxoglutarate
  inhibition of modifying activity of cell extract on 19:WT (pVHL capture): not
[2]
  inhibition of HIF hydroxylase / HPH: also an inhibitor

## CC(C)[C@H](NC(=O)C(=O)O)C(=O)O [NK80]
[3]
  Disruption of HIF-VHL interaction: No

## C[C@H](NC(=O)C(=O)O)C(=O)O [NK81, oxalyl L-alanine]
[3]
  Disruption of HIF-VHL interaction: Yes

## C[C@@H](NC(=O)C(=O)O)C(=O)O [NK82, oxalyl D-alanine]
[3]
  Disruption of HIF-VHL interaction: No

## O=C(O)CNC(=O)C(=O)O [NK87, oxalylglycine]
[3]
  Disruption of HIF-VHL interaction: Yes
  pVHL binding after treatment of Gal-Hif549-582-VP16 with cell extract in the presence of inhibitor: reduced binding of pVHL
[3]; plus additional 2-oxoglutarate
  pVHL binding after treatment with cell extract in the presence of inhibitor and additional 2-oxoglutarate: strong binding

## O=C(NO)c1ccccc1 [benzohydroxamic acid]
[3]
  pVHL binding after treatment of Gal-Hif549-582-VP16 with cell extract in the presence of inhibitor: reduced pVHL binding

## Clc1ccccc1C(c1ccccc1)(c1ccccc1)n1ccnc1 [clotrimazole, reference compound]
[3]
  effect of pretreatment of extracts on modifying activity: did not significantly affect activity

## CCOC(=O)c1ccc(O)c(O)c1 [ethyl dihydroxybenzoate]
[3]
  pVHL binding after treatment of Gal-Hif549-582-VP16 with cell extract in the presence of inhibitor: reduced pVHL binding

## N[C@@H](CCC(=O)N[C@@H](CS)C(=O)NCC(=O)O)C(=O)O [glutathione, gamma-glutamyl-cysteinyl-glycine]
[2]
  inhibition of HIF hydroxylase / HPH: inhibitors of HPH

## C[n+]1ccc(-c2cc[n+](C)cc2)cc1 [methyl-viologen, reference compound]
[3]
  effect of pretreatment of extracts on modifying activity: did not significantly affect activity

— US9844546B2, “Antibody against human HIF hydroxylase” (OXFORD UNIVERSITY INNOVATION LIMITED, priority 2001, dated 2017)
